Assay results as given in patent US6313177A, “D-mannitol derivatives as HIV aspartyl protease inhibitors” (Pharmacor Inc., priority 1999, dated 2001).
Where two headings read alike, the source gives them in different places.

Legend:
[1] = target: T1, recombinant HIV-1 protease (Human immunodeficiency virus type 1 group M subtype B, UniProt P04585); test: Fluorometric (FRET) enzymatic assay for the inhibition constant (Ki) against the HIV protease; format: biochemical
T1 construct: recombinant HIV-1 protease; purchased Bachem Bioscience
From the text: Enzymatic Assay for Determining the Inhibition Constant (Ki) of Synthetic Compounds Prepared Against the HIV Protease
This is a fluorometric assay based on the cleavage by protease of a substrate carrying a donor group (EDANS, excitation at 340 nm and emission at 490 nm) and an acceptor group (DABCYL) on each side of the cleavage site, interacting together through fluorescence resonance energy transfer (FRET). Cleavage of the substrate by protease stops energy exchange between the two groups, resulting in a time-dependent increase in fluorescence intensity that is linearly related to the extent of substrate hydrolysis.
The enzymatic assay is done at 30° C. in a spectrophotometer microcuvet, in a total volume of 400 μL. The apparatus used for readings is a UV-visible Cary 1 spectrophotometer made by Varian. The reaction is run first in the absence of protease inhibitors for 2 min, using 355 μL of buffer at pH 4.7 (sodium acetate 100 mM, NaCl 1 M, EDTA 1 mM, DTT 1 mM, dimethylsulfoxide 10%, and BSA 1 mg/mL), 40 μL of substrate H-2930 from Molecular Probes (final concentration 10 μM) and 5 μL of recombinant HIV-1 protease (final concentration 18.3 nM) purchased from Bachem Bioscience. Fluorescence readings at […] are taken continuously during the reaction, allowing determination of the enzyme's initial velocity (v0). At the end of the 2 min incubation, the potential inhibitor at a defined concentration in a volume of 2 μL is added to the reaction, and fluorescence readings are taken for another 2 min, allowing determination of enzyme velocity (vi) in the presence of the inhibitory compound. Several concentrations of the putative inhibitors are tested in the assay. After calculation of vo and vi, the inhibition constant (Ki) of the compound is determined using the equation of Henderson: [formula]
and [I]=inhibitor concentration, [S ]=substrate concentration, Km=Michaelis-Menten constant, Kiapp =apparent Ki
Note that the Michaelis-Menten constant of HIV protease is determined by running the assay without inhibitors, using several concentrations of substrate, and plotting the results as a Cornish-Bowden graph with the ratio substrate concentration/velocity as the ordinate and substrate concentration as the abscissa.

[2] = Cytotoxicity (MTT assay / trypan blue exclusion test); format: cell-based; conditions: 7 or 10 days, 37° C., measure (IC50/CC50) not stated
Procedure: Two assays were performed to evaluate the potentiel toxicity of the compounds in infected cells:
1) Briefly, cells were grown in 96-well microtiter plates at 37° C. in complete culture medium in the presence of the compound to test. Control cells grown in the absence of the compound received the same amount of solvent used to dissolve the inhibitor (in this case, dimethylsulfoxide at a final concentration of 0.1 to 0.3%). After 7 or 10 days, MTT was added to the cultures for 4 hours at 37° C. as described in the literature (Schwartz et al., AIDS Res. Hum. Retrov. 4: 441-448, 1988; Mosmaun, J. Immunol. Meth., 65: 55-63, 1983) and the changes in absorbance associated with metabolism of MTT by viable cells was monitored with an ELISA microplate reader at a test wavelength of 540 nm.
2) The cells were grown as described above in 24-well microplates or 25-cm tissue culture flasks in the presence or absence of the tested compounds, and the cell viability after 7 or 10 days was determined by the trypan blue exclusion test, using a hemacytometer and a microscope at 100× magnification.

[3] = Table 2, tetra-substituted D-mannitol derivatives, pH 4.7, 30° C., substrate 10 μM, protease 18.3 nM
[4] = Table 3, di- and tri-substituted D-mannitol derivatives, pH 4.7, 30° C., substrate 10 μM, protease 18.3 nM

Ki [1, 4]	Structure (SMILES)	other results
33 µM	O[C@@H]([C@H](O)[C@@H](COCc1ccccc1)OCc1ccccc1)[C@H](O)COCc1ccccc1 [Compound 98, 1,2,6-tri-O-benzyl-D-mannitol]	–
> 5 µM	CSC(=S)O[C@H](COCc1ccccc1)[C@@H](O)[C@H](O)[C@@H](COCc1ccccc1)OC(=S)SC [Compound 101, 1,6-di-O-benzyl-2,5-di-O-(methylthiothioxo)-D-mannitol]	–
> 5 µM	CSC(=S)O[C@H](COCc1ccccc1)[C@@H](O)[C@H](O)[C@@H](COCc1ccccc1)OCc1ccc(F)cc1 [Compound 106, 1,6-di-O-benzyl-2-O-(4-fluorobenzyl)-5-O-(methylthiothioxo)-D-mannitol]	–
10 µM	O=C(O[C@H](COCc1ccccc1)[C@@H](O)[C@H](O)[C@@H](COCc1ccccc1)OC(=O)c1ccccc1)c1ccccc1 [Compound 109, 1,6-di-O-benzyl-2,5-di-O-benzoyl-D-mannitol]	–

More lines, now with the values behind:

Structure (SMILES)	Ki [1, 4]	other results
O[C@@H]([C@H](O)[C@@H](COCc1ccccc1)OCc1ccccc1)[C@@H](COCc1ccccc1)OCc1ccccc1 [Compound 1, 1,2,5,6-tetra-O-benzyl-D-mannitol]	–	Ki [1]: 2 µM; CC50 [2]: 15 µM
O[C@@H]([C@H](O)[C@@H](COCc1ccccc1)OCc1cccs1)[C@@H](COCc1ccccc1)OCc1ccc(F)cc1 [Compound 96, 1,6-di-O-benzyl-2-O-(4-fluorobenzyl)-5-O-(2-thienylmethyl)-D-mannitol]	–	Ki [1, 3]: 0.23 µM
O[C@@H]([C@H](O)[C@@H](COCc1ccccc1F)OCc1cccs1)[C@@H](COCc1ccccc1F)OCc1ccc(F)cc1 [Compound 97, 1,6-di-O-(2-fluorobenzyl)-2-O-(4-fluorobenzyl)-5-O-(2-thienylmethyl)-D-mannitol]	–	Ki [1, 3]: 0.23 µM
O=[N+]([O-])c1ccc(CO[C@H](COCc2ccccc2)[C@@H](O)[C@H](O)[C@H](O)COCc2ccccc2)cc1 [Compound 99, 1,6-di-O-benzyl-2-O-(4-nitrobenzyl)-D-mannitol]	45 µM	–
